Data from US11883442B1, “Composition for treating irritable bowel syndrome” (KING FAISAL UNIVERSITY, priority 2023, dated 2024).

Tested on: TNF-α
Assay: cytokine (TNF-α) levels in the colonic homogenate, TNBS-induced colitis model
Type: in vivo, C57B16j mice
Conditions: at a pH value of 5.2; FIG. 2B
Protocol: Colitis was induced in C57B16j mice by 2,4,6-trinitrobenzene sulfonic acid (TNBS). TNBS induction was made at 0 and 4 days. BA 10^8/mL BA, EF 10^9/mL EF, and calciferol at […] was administered as oral gavage on alternative days from day 0 to day 14.
A comparative evaluation of cytokine (TNF-α) levels in the colonic homogenate of different mice groups from the TNBS-induced colitis model was performed. TNF-α was quantified after 14 days of the start of the experiment. All data were collected from three individual experiments and pooled and expressed as mean ±SD (p<0.05). The effect of BA and EF loads on the pro-inflammatory marker (TNF-α) in TNBS-induced colitis mice is illustrated in FIGS. 1A-1B (values are expressed in pg/mL).
Disease index and bleeding indicated degree of recovery of the disease in the group treated with the composition. […] TNF-α was quantified after 14 days of the experiment. The values are expressed in pg/mL. All data were collected from three individual experiments and pooled and expressed as mean ±SD (p<0.05). *p<0.05 represents significance.

C=C1CC[C@H](O)C/C1=C/C=C1\CCC[C@]2(C)[C@@H]([C@H](C)/C=C/[C@H](C)C(C)C)CC[C@@H]12 [calciferol]
most effective concentration of calciferol in the composition: 5 µM
